Measurements from ChEMBL document CHEMBL5579896, “Discovery of 2-Aryl-4-aminoquinazolin-Based LSD1 Inhibitors to Activate Immune Response in Gastric Cancer” (J Med Chem, 2024).
Calls of active or inactive are those of the source.

Experiments:
[1] = molecular target: T1, Lysine-specific histone demethylase 2 (Homo sapiens) (UniProt Q8NB78); assay: Inhibition of LSD2 (unknown origin) at 10 uM relative to control
T1 sequence (whole entry): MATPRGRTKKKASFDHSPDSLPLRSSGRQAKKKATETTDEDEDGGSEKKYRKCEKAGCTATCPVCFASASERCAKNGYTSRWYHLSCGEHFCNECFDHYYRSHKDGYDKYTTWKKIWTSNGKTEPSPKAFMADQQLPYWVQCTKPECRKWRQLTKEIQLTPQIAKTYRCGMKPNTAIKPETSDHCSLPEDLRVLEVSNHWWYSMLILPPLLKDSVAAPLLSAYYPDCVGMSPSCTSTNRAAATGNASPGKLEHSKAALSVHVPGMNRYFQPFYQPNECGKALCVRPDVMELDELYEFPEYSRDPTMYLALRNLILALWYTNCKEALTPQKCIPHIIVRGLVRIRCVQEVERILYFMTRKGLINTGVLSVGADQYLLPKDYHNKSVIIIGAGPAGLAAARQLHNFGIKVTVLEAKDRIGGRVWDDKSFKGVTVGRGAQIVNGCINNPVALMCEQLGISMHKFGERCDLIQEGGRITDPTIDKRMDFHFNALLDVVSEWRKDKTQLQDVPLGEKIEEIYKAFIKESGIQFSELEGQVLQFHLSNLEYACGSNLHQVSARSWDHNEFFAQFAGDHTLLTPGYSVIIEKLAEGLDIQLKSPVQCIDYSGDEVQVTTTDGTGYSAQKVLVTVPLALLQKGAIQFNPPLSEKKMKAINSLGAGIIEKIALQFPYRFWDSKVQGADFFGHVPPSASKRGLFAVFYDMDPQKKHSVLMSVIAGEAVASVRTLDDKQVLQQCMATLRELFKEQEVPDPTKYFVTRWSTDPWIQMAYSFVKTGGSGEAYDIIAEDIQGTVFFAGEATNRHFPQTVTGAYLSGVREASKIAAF

[2] = molecular target: T2, MAO-A (Amine oxidase [flavin-containing] A) (Homo sapiens, UniProt P21397); assay: Inhibition of MAO-A (unknown origin) at 10 uM relative to control
T2 sequence (P21397 whole entry): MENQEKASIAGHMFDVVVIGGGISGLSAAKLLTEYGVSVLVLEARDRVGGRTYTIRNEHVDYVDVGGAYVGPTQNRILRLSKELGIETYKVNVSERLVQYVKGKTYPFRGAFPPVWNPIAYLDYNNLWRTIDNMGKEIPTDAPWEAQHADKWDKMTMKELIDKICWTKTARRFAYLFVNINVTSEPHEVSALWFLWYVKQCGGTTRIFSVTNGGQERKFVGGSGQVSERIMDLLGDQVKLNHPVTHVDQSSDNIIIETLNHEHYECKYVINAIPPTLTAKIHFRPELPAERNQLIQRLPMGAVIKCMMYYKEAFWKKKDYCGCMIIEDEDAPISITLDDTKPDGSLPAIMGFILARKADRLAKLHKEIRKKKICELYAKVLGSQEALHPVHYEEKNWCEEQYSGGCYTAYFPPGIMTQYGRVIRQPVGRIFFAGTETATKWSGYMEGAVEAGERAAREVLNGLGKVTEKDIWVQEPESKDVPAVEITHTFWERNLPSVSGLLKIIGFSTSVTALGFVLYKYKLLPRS

[3] = molecular target: T3, MAO-B (Amine oxidase [flavin-containing] B) (Homo sapiens, UniProt P27338); assay: Inhibition of MAO-B (unknown origin) at 10 uM relative to control
T3 sequence (P27338 whole entry): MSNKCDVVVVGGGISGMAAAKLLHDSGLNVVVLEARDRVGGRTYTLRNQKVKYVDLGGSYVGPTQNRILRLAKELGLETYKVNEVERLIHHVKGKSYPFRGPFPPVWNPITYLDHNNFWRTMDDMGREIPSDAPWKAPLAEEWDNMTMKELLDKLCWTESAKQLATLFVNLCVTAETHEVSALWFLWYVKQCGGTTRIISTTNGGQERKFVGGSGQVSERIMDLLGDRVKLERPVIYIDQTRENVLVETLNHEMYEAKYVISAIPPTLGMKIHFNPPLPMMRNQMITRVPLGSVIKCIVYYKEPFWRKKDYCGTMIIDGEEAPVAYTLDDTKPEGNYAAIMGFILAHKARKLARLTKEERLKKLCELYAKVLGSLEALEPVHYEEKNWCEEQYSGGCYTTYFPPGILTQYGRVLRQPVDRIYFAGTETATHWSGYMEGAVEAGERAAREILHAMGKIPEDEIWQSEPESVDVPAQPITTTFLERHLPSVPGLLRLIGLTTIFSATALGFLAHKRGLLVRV

[4] = molecular target: T4, Lysine-specific histone demethylase 2 (Homo sapiens, UniProt Q8NB78); assay: Inhibition of LSD2 (unknown origin)
T4 sequence (Q8NB78 whole entry): T1 sequence (whole entry)

[5] = molecular target: T5, Amine oxidase [flavin-containing] A (Homo sapiens, UniProt P21397); assay: Inhibition of MAO-A (unknown origin)
T5 sequence (P21397 whole entry): T2 sequence (P21397 whole entry)

[6] = molecular target: T6, Amine oxidase [flavin-containing] B (Homo sapiens, UniProt P27338); assay: Inhibition of MAO-B (unknown origin)
T6 sequence (P27338 whole entry): T3 sequence (P27338 whole entry)

[7] = molecular target: T7, Histone-lysine N-methyltransferase EHMT2 (Homo sapiens) (UniProt Q96KQ7); assay: Inhibition of G9a (unknown origin)
T7 sequence (whole entry): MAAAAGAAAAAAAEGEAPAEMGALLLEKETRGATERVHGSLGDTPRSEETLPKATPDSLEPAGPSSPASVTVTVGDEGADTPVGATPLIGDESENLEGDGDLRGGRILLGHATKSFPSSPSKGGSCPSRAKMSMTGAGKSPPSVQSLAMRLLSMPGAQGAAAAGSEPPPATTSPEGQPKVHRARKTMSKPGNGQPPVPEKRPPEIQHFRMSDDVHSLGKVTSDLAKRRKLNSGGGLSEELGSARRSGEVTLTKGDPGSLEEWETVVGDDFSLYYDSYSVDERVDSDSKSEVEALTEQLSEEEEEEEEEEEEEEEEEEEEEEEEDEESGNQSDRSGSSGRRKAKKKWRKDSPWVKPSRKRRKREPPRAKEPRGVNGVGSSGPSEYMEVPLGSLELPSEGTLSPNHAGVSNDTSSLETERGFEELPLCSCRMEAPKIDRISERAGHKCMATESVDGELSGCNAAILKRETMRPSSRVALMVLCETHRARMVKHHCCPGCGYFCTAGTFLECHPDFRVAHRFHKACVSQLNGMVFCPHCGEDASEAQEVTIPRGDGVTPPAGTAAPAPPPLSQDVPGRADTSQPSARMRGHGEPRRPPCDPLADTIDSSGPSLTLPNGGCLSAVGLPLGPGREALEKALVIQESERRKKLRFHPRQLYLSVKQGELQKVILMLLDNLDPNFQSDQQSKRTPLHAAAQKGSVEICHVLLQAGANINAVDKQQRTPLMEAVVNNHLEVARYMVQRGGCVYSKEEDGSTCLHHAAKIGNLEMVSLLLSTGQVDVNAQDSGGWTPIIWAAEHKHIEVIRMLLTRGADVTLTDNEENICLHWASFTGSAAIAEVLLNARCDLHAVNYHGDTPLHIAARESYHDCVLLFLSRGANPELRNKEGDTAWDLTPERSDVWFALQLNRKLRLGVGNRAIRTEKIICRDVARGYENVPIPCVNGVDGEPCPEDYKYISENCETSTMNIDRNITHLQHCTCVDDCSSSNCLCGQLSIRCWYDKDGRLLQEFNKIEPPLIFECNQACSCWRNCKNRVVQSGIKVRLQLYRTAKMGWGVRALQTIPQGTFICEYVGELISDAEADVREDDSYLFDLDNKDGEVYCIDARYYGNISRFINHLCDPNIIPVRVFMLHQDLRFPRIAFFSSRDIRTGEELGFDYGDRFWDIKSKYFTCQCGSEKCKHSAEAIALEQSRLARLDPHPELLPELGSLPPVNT

[8] = molecular target: Epidermal growth factor receptor (Homo sapiens) (UniProt P00533); assay: Inhibition of EGFR (unknown origin)
[9] = tested on: BGC-823; assay: Effect on LSD1 expression in human BGC-823 cells by Western blotting analysis; format: functional, cell-based
[10] = tested on: BGC-823; assay: Effect on H3K4me1 methylation in LSD1 knockout human BGC-823 cells at 2 to 8 uM by Western blotting analysis; format: functional, cell-based; conditions: dose 2-8 µM
[11] = tested on: BGC-823; assay: Effect on H3K4me2 methylation in LSD1 knockout human BGC-823 cells at 2 to 8 uM by Western blotting analysis; format: functional, cell-based; conditions: dose 2-8 µM
[12] = tested on: BGC-823; assay: Effect on H3K4me3 methylation in LSD1 knockout human BGC-823 cells at 2 to 8 uM by Western blotting analysis; format: functional, cell-based; conditions: dose 2-8 µM
[13] = tested on: BGC-823; assay: Downregulation of PD-L1 expression in human BGC-823 cells incubated for 5 days by Western blotting analysis; format: functional, cell-based; conditions: dose 2-8 µM, time 5.0 day
[14] = tested on: BGC-823; assay: Downregulation of PD-L1 expression in human BGC-823 cells at 2 to 8 uM by Western blotting analysis; format: functional, cell-based; conditions: dose 2-8 µM, TDE = time-dependent effect
[15] = tested on: MFC; assay: Downregulation of PD-L1 expression in MFC cells incubated for 5 days by Western blotting analysis; format: functional, cell-based; conditions: Mus musculus, dose 2-8 µM, time 5.0 day
[16] = tested on: MFC; assay: Downregulation of PD-L1 expression in MFC cells at 2 to 8 uM by Western blotting analysis; format: functional, cell-based; conditions: Mus musculus, dose 2-8 µM, TDE = time-dependent effect
[17] = tested on: BGC-823; assay: Downregulation of PD-L1 expression in LSD1 knockout human BGC-823 cells at 2 to 8 uM incubated for 5 days by flow cytometry analysis; format: functional, cell-based; conditions: dose 2-8 µM, time 5.0 day
[18] = tested on: BGC-823; assay: Cytotoxicity against human BGC-823 cells assessed as reduction in cell viability at 8 uM incubated for 5 days by SRB assay; format: toxicity, cell-based; conditions: bgc-823, 120 h, time 5 day
[19] = molecular target: Programmed cell death protein 1/Programmed cell death 1 ligand 1 (Homo sapiens) (UniProt Q15116+Q9NZQ7); assay: Inhibition of PD-1 to PD-L1 protein-protein interaction in human BGC-823 cells incubated for 5 days by DAPI staining based confocal microscopic analysis; format: cell-based; conditions: dose 2-8 µM, time 5.0 day

Sequence of Epidermal growth factor receptor (Homo sapiens) (P00533 whole entry): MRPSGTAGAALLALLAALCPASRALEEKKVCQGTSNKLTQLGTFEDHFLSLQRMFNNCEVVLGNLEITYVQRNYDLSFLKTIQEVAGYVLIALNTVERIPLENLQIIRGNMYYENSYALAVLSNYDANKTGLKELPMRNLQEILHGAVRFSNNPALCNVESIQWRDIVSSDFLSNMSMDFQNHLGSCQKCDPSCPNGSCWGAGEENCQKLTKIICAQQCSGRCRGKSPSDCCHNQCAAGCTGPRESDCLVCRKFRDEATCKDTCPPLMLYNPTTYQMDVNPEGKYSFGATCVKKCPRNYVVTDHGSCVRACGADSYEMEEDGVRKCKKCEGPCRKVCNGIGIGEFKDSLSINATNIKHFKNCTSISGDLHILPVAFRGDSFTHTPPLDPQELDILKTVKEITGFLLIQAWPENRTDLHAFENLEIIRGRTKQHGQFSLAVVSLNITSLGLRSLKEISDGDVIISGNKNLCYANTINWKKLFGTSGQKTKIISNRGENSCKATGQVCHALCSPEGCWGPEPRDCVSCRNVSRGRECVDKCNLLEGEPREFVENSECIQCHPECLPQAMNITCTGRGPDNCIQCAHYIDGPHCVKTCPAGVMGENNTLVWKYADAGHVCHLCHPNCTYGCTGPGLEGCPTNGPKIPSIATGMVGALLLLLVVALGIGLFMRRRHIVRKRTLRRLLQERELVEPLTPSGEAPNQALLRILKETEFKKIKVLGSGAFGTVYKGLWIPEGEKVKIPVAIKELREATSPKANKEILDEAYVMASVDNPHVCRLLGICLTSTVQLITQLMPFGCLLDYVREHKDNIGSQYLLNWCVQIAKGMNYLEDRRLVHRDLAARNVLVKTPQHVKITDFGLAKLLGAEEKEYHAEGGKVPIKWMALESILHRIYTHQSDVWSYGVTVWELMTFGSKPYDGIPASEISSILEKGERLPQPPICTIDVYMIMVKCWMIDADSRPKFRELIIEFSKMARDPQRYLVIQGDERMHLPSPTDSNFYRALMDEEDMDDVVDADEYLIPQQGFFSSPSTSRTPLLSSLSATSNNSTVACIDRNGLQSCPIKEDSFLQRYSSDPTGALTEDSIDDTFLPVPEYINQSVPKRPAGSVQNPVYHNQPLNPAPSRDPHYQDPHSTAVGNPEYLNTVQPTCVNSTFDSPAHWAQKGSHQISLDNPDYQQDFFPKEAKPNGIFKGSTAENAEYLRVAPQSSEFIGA

CCN(CC)c1ccc(Nc2nc(-c3ccc(S(C)(=O)=O)cc3)nc3ccccc23)cc1
Non-Toxic: Activity [18]
inactive: inhibition [7] | inhibition [8] | Activity [9] | Activity [10] | Activity [11] | Activity [12] | Activity [17]
< 10%: inhibition [1] | inhibition at 10 µM [2] | inhibition at 10 µM [3]
active: Activity [13] Dose-Dependent Effect | Activity [14] Tde | Activity [15] Dose-Dependent Effect | Activity [16] Tde | inhibition [19] Dose-Dependent Effect
> 10 µM: IC50 [4] | IC50 [5] | IC50 [6]
